Measurements from US7910594B2 (priority 2002, dated 2011).
“And” between values parts separate entries of the source, which are not always exact repeats. Equal entries are not always repeated.

Key:
subcutaneous M109 tumors [1] = assay: subcutaneous M109 tumors treated with TAXOL with or without EC72; assay type: in vivo, Balb/c mice
Procedure: The protocol described in Example 5 was followed except that animals were injected i.v. at the beginning of the treatment period and were injected i.p. later in the treatment period.
Tumor volumes were calculated using the equation V=a×b^2/2, where “a” is the length of the tumor and “b” is the width expressed in millimeters. The tumors were measured using calipers.

[2] = toxicity of TAXOL / EC72 regimens (weight loss, blood chemistry, tissue pathology); assay type: in vivo, Balb/c mice; parameters: key to Liver: mice with Degeneration / Liver: grade of Degeneration: “0.5” = Occasionally present; “1” = Mild; “2” = Moderate; “3” = Marked
Text: The toxicity of each tested regimen was also monitored by measuring weight loss, blood chemistry, and tissue pathology.

[3] = system: folate receptor-positive KB cells; assay: in vitro cytotoxicity assay (bromodeoxyuridine-based ELISA); assay type: cell-based
Procedure: A compound denominated as EC72 (see scheme 1) was evaluated using an in vitro cytotoxicity assay that predicts the ability of the drug to inhibit the growth of folate receptor-positive KB cells. This compound comprises a folate analog linked to mitomycin C prepared according to the protocol depicted in scheme 2. The KB cells were exposed for 15 minutes at 37° C. to the indicated concentrations of EC72, free mitomyicn C (drug #1), or to EC72 and at least a 100-fold excess of folic acid. The cells were then rinsed once with fresh culture medium and incubated in fresh culture medium for 72 hours at 37° C. Cell viability was assessed using a bromodeoxyuridine-based ELISA assay.

M109 tumor = assay: survival of intraperitoneal M109 tumor-bearing mice; assay type: in vivo, Balb/c mice; conditions: for increase in lifespan (ILS): 1800 mmoles/kg i.p. once daily beginning on day 5 after tumor cell inoculation, FIG. 2
Procedure: (§1) The effectiveness of EC72 for promoting survival of tumor-bearing mice was evaluated in vivo using M109 tumor-bearing Balb/c mice. There were two goals of this study: i) to determine if daily intraperitoneal treatment with EC72 could prolong the lives of folate receptor-positive tumor-bearing mice beyond what mitomycin C could do when tested under an identical dosing regimen, and ii) to examine the pathological effects of EC72 treatment on normal tissues, including kidney tissue which is folate receptor-positive tissue. Although most normal tissues contain very low levels of folate receptor, the proximal tubules of the kidney express appreciable numbers of folate receptors. Thus, the in vivo evaluation of EC72 also enabled evaluation of the extent of kidney-specific damage caused by the systemic administration of folate-mitomycin conjugates.
Balb/c mice (5 mice/group) were given an intraperitoneal injection with 1×10^6 M109 cells. The mice were then given an intraperitoneal injection once daily with […]/kg of EC72 or mitomycin C (control mice were injected with PBS) beginning on day 5 after tumor cell innoculation (ILS=increased life span (i.e., median survival time)).
Thus, a group of animals were given intraperitoneal injections of EC72 plus a 10-fold excess of free folic acid.

[4] = for myelosuppression / kidney damage: M109 tumor-bearing mice, daily i.p. treatment
Procedure: as §1
Major organs were also collected in both the EC72 and mitomycin C-treated animals (following euthanasia), and they were sent to an independent pathologist for examination.

subcutaneous M109 tumors [5] = assay: growth of subcutaneous M109 tumors, EC72 i.v. then i.p.; assay type: in vivo, Balb/c mice; conditions: 1800 nmoles/kg qd×5 for six weeks from day 4, i.v. (12 injections) then i.p.; FIG. 4
Procedure: The anti-tumor activity of EC72 when administered intravenously (i.v.) to tumor-bearing animals, was evaluated in Balb/c mice bearing subcutaneous M109 tumors. Thus, a protocol similar to that described in Example 3 was followed except that the compounds were administered i.v. (described below) and the tumors were subcutaneous. Four days post tumor inoculation in the subcutis of the right axilla, mice were injected i.v. qd×5 for six weeks with 1800 nmoles/kg of EC72.
Tumor growth was determined at 2-day intervals in each treatment group until the tumors grew to at least 1500 mm3. The tail veins became excessively bruised and inaccessible after 12 i.v. injections so dosing was continued i.p. following the same qd×5 schedule. […] Thus, EC72 may not have reached the distal subcutaneous tumor efficiently following i.p. administration of EC72, a limitation not encountered when EC72 was administered i.v. during the initial phase of the therapy.

subcutaneous M109 tumors [6] = assay: survival of mice bearing subcutaneous M109 tumors, delayed start of EC72 treatment; assay type: in vivo, Balb/c mice; conditions: for Median Survival: EC72 1800 nmol/kg i.v. qd×5 for 4 weeks
Procedure: The protocol described in Example 4 was followed except that mice were injected i.v. throughout the treatment period and were treated with EC72 for 4 weeks. Balb/c mice (n=5) were injected subcutaneously in the subcutis of the right axilla with 1×10^6 M109 cells and were treated qd×5 for 4 weeks with 1800 nmol/kg of EC72. EC72 was administered i.v. beginning on the designated day post tumor cell inoculation (PTI; see Table 3). Animal survival was monitored daily, and mice showing a complete response were those that were tumor-free at day 60 PTI.

[7] = biological target: T1, folate receptors (FRs) on KB cells (Homo sapiens, UniProt P15328); assay: relative affinity assay (3H-folic acid displacement); assay type: binding; conditions: 100 nM 3H-folic acid, 15 min on ice, folic acid set to 1, FIG. 9
T1 construct: FR-positive KB cells were gently trypsinized; endogenous in cells; host or cells: KB cells
T1 sequence (P15328 25-234): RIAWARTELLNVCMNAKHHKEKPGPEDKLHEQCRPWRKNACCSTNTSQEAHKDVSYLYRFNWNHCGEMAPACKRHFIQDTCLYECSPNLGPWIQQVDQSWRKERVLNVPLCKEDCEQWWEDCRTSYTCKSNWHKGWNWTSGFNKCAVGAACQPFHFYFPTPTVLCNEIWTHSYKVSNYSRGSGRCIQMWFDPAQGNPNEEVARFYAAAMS
Procedure: The affinity of EC72 for folate receptors (FRs) relative to folate was determined according to a previously described method (Westerhof, G. R., J. H. Schomagel, et al. (1995) Mol. Pharm. 48: 459-471) with slight modification. Briefly, FR-positive KB cells were gently trypsinized in 0.25% trypsin in phosphate-buffered saline (PBS) at room temperature for 3 minutes and then diluted in folate-free RPMI (FFRPMI) containing 10% heat-inactivated fetal calf serum (HIFCS). Following a 5 min 800×g spin and one PBS wash, the final cell pellet was suspended in FFRPMI 1640 (no serum). Cells were incubated for 15 min on ice with 100 nM ^3H-folic acid in the absence and presence of increasing concentrations of EC72 or folate. Samples were centrifuged at 10,000×g for 5 min, and then the cell pellets were suspended in buffer, transferred to individual vials containing 5 mL of scintillation cocktail, and then counted for radioactivity. Negative control tubes contained only the ^3H-folic acid in FFRPMI (no competitor). Positive control tubes contained a final concentration of 1 mM folic acid, and CPMs measured in these samples (representing non-specific binding of label) were subtracted from all samples.

FR-positive KB cells = assay: in vitro dose response, 3H-thymidine incorporation (DNA synthesis); assay type: cell-based; conditions: 0.1 mM folic acid (competitor)
Procedure: KB cells were seeded in 12-well Falcon plates and allowed to form near-confluent monolayers overnight. Following one rinse with 1 mL of fresh FFRPMI/HIFCS, each well received 0.5 mL of FFRPMI/HIFCS containing increasing concentrations of EC72 in the presence of absence of 0.1 mM folic acid (competitor). Cells were incubated for 15 min at 37° C. and then rinsed four times with 0.5 mL of FFRPMI/HIFCS. 0.5 mL of fresh FFRPMI/HIFCS was then added to each well, and cells were chased for a total of 72 h at 37° C. Two hours before the end of the incubation, media was replaced in each well with 0.5 mL FFRPMI/HIFCS containing 5 μCi of ^3H-thymidine. Monolayers were then washed 3 times with 0.5 mL of PBS and then precipitated with 1 ml of 10% cold trichloroacetic acid. The trichloroacetic acid solution was collected and discarded, and precipitated material was sequentially dissolved in 0.5 mL 0.25 N NaOH and 1% sodium dodecyl sulfate for 15 min at room temperature. Samples were then counted for radioactivity using a Packard gamma counter. Final tabulated values were expressed as a percentage of radioactivity incorporated into untreated cell samples.

[8] = system: Folate receptor-positive M109 P0 tumor cells; assay: in vivo dose response, intraperitoneal M109 tumor; parameters: species or system mice (female Balb/C strain)
Procedure: Six to seven week-old mice (female Balb/C strain) were obtained from Harlan, Inc., Indianapolis, Ind. The mice were maintained on Harlan's folate-free chow for a total of three weeks prior to the onset of and during this experiment. Folate receptor-positive M109 P0 tumor cells (0.5×10^6 cells per animal) were inoculated in the upper peritoneal cavity 4 days prior to the onset of dosing. The formulations indicated in FIG. 11 were dosed intraperitoneally qd×30 starting on day 4 post tumor inoculation, and animal survival was monitored daily.

[9] = system: Folate receptor-negative 4T-1 tumor; assay: in vivo activity on folate receptor-negative tumor; parameters: species or system mice (female Balb/C strain); conditions: i.p. qd×30 from day 4 post tumor inoculation; FIG. 12
Procedure: Six to seven week-old mice (female Balb/C strain) were obtained from Harlan, Inc., Indianapolis, Ind. The mice were maintained on Harlan's folate-free chow for a total of three weeks prior to the onset of and during this experiment. Folate receptor-negative 4T-1 tumor cells (1×10^6 cells per animal) were inoculated in the subcutis of the right axilla. The formulations indicated in FIG. 12 were dosed intraperitoneally qd×30 starting on day 4 post tumor inoculation, and tumor volume as well as animal survival were monitored daily. EC72 had no activity against a subcutaneous folate-receptor-negative 4T-1 tumor.

[10] = Taxol 15 mg/kg with EC72 0 or 1800 nmol/kg, 6 mice/cohort
[11] = Taxol 15 mg/kg with EC72 0 or 1800 nmol/kg, 6 mice/cohort, listed as Taxol
[12] = tissue pathology, TAXOL 15 mg/kg, n = 6 mice

Compound: CC(=O)O[C@H]1C(=O)[C@@]2(C)[C@H]([C@H](OC(=O)c3ccccc3)[C@]3(O)C[C@H](OC(=O)[C@H](O)[C@@H](NC(=O)c4ccccc4)c4ccccc4)C(C)=C1C3(C)C)[C@]1(OC(C)=O)CO[C@@H]1C[C@@H]2O [TAXOL®, paclitaxel]
- day PTI until which tumors failed to grow (subcutaneous M109 tumors [1]; TAXOL 15 mg/kg, from day 12 PTI): 21 day PTI
- log cell kill (LCK) (subcutaneous M109 tumors [1]; TAXOL 20 mg/kg i.v. with or without EC72 1800 nmol/kg qd×5 for 4 weeks, from day 12 PTI, FIG. 7): 1.3
- day PTI until which tumors failed to grow (subcutaneous M109 tumors [1]; TAXOL 20 mg/kg, from day 12 PTI): 29 day PTI
- long term survivors (subcutaneous M109 tumors [1]; TAXOL 20 mg/kg, n=5): none of the 5 mice
- CR (complete response) (subcutaneous M109 tumors [1]; [10]): 2 of the 6
- NR (no response) (subcutaneous M109 tumors [1]; [10]): 0
- PR (partial response) (subcutaneous M109 tumors [1]; [10]): 4 of the 6
- CR (complete response) (subcutaneous M109 tumors [1]; [11]): 2
- PR (partial response) (subcutaneous M109 tumors [1]; [11]): 4
- Log Cell Kill (LCK) (subcutaneous M109 tumors [1]; Taxol 15 mg/kg with EC72 0 or 1800 nmol/kg, from day 12 PTI, 6 mice/cohort, FIG. 8): 0.6
- appearance and body weight during dosing ([2]; TAXOL 20 mg/kg with or without EC72 1800 nmol/kg): appeared sick, experienced weight loss
- Bone: mice Normal [2, 12]: 6
- Heart: mice Normal [2, 12]: 6
- Kidney: mice Normal [2, 12]: 6
- Liver: mice Normal [2, 12]: 5
- Spleen: mice Normal [2, 12]: 6
- Liver: grade of Degeneration ([2]; tissue pathology, grade in brackets): 1(1)
- Liver: mice with Degeneration ([2]; tissue pathology, number before the bracket, n = 6 mice): 1(1)

Compound: CO[C@@]12[C@H](COC(N)=O)C3=C(C(=O)C(C)=C(NCCSSC[C@H](NC(=O)CC[C@H](NC(=O)c4ccc(NCc5cnc6nc(N)[nH]c(=O)c6n5)cc4)C(=O)O)C(=O)O)C3=O)N1C[C@@H]1N[C@@H]12 [EC72]
- cytotoxicity compared with free mitomycin C ([3]; 15 minutes exposure at 37° C., 72 hours chase, FIG. 1): equal to that of free mitomycin C
- cytotoxicity in the presence of excess free folic acid ([3]; at least a 100-fold excess of folic acid): blocked
- increase in lifespan (ILS) (M109 tumor): 178%
- animals tumor-free by day 70 post tumor cell inoculation (M109 tumor; 30 daily i.p. injections): 1 of 4
- outcome of group coinjected with folic acid (M109 tumor; EC72 plus a 10-fold excess of free folic acid): all mice in this group eventually died from the tumor burden
- myelosuppression / kidney damage [4]: no evidence of myelosuppression or kidney damage
- blood-urea-nitrogen and creatine levels ([4]; following 30 consecutive daily injections): normal
- effect on growth of subcutaneous M109 tumor (subcutaneous M109 tumors [5]): effective in delaying the growth of the M109 tumor
- Median Survival (subcutaneous M109 tumors [6]; initiation PTI 1): 56 days
- Median Survival (subcutaneous M109 tumors [6]; initiation PTI 3): 54 days
- Median Survival (subcutaneous M109 tumors [6]; initiation PTI 7): 28 days
- Median Survival (subcutaneous M109 tumors [6]; initiation PTI 12): 26 days
- anti-tumor response of EC72 alone (subcutaneous M109 tumors [6]; EC72 treatment initiated 12 days PTI, subcutaneous tumor model): failed to produce an anti-tumor response
- % ILS (subcutaneous M109 tumors [6]; initiation PTI 1): 133%
- Complete Responses (tumor-free at day 60 PTI) (subcutaneous M109 tumors [6]; initiation PTI 1, n = 5): 2 of 5 and 2
- Partial Responses (subcutaneous M109 tumors [6]; initiation PTI 1, n = 5): 3 of 5 and 3
- % ILS (subcutaneous M109 tumors [6]; initiation PTI 3): 125%
- Complete Responses (tumor-free at day 60 PTI) (subcutaneous M109 tumors [6]; initiation PTI 3, n = 5): 0
- Partial Responses (subcutaneous M109 tumors [6]; initiation PTI 3, n = 5): 5
- % ILS (subcutaneous M109 tumors [6]; initiation PTI 7): 17%
- Complete Responses (tumor-free at day 60 PTI) (subcutaneous M109 tumors [6]; initiation PTI 7, n = 5): 0
- Partial Responses (subcutaneous M109 tumors [6]; initiation PTI 7, n = 5): 5
- % ILS (subcutaneous M109 tumors [6]; initiation PTI 12): 8%
- Complete Responses (tumor-free at day 60 PTI) (subcutaneous M109 tumors [6]; initiation PTI 12, n = 5): 0 of 5 and 0
- Partial Responses (subcutaneous M109 tumors [6]; initiation PTI 12, n = 5): 5
- relative affinity for the folate receptor [7]: 0.59
- DNA synthesis inhibition in the presence of excess free folic acid (FR-positive KB cells): effectively blocked any DNA synthesis inhibition
- animals showing a complete response ([8]; 1800 nmol/kg i.p. qd×30): 1 of 4
- increase in lifespan ([8]; 1800 nmol/kg i.p. qd×30 from day 4 post tumor inoculation): 240%
- dose dependence of activity in M109 tumor-bearing mice ([8]; 100, 400, 1800 nmol/kg i.p. qd×30 from day 4, FIG. 11): dose-dependent activity
- activity against subcutaneous folate-receptor-negative 4T-1 tumor [9]: no activity

Compound: CO[C@@]12[C@H](COC(N)=O)C3=C(C(=O)C(C)=C(N)C3=O)N1C[C@@H]1N[C@@H]12 [mitomycin C, reference compound]
- increase in lifespan (ILS) (M109 tumor): 39%
- increased life span (median survival time) over PBS control group (M109 tumor; repeat experiment, 30 daily i.p. injections, FIG. 3): ~25%
- myelosuppression / kidney damage [4]: extensive myelosuppression
- cause of death of treated animals ([4]; mouse, in vivo, ip): died from apparent mitomycin C-related side effects
